Values after ≈ are worked out from the molar mass of the structure shown. Active and inactive are the calls of the source. The rule behind the calls is not given here.
Key:
NCI-H460 = assay: Cytotoxicity against human NCI-H460 cells after 48 hrs by MTT assay; format: functional, cell-based; settings: NCI-H460, 48 h
HeLa = assay: Cytotoxicity against human HeLa cells after 48 hrs by MTT assay; format: functional, cell-based
MCF7 = assay: Cytotoxicity against human MCF7 cells after 48 hrs by MTT assay; format: functional, cell-based; settings: MCF7, 48 h
[1] = Antitumor activity against mouse EAC cells xenografted in Swiss albino mouse assessed as viable tumor cells at 10 mg/kg/day, ip administered for 9 days measured on day 14 by trypan blue exclusion assay (reference value: 7 +/- 0.43 /ml); format: functional, Ehrlich; settings: route intraperitoneal
Mus musculus [2] = assay: Hepatoprotective activity in Swiss albino mouse xenografted with mouse EAC cells assessed as SGOT level at 5 mg/kg/day, ip administered for 9 days measured on day 14 (reference value: 112 +/- 1.42 IU/L); format: functional, Ehrlich; settings: route intraperitoneal
[3] = Antitumor activity against mouse EAC cells xenografted in Swiss albino mouse assessed as non-viable tumor cells at 10 mg/kg/day, ip administered for 9 days measured on day 14 by trypan blue exclusion assay (reference value: 1.02 +/- 0.09 /ml); format: functional, Ehrlich; settings: route intraperitoneal
Mus musculus [4] = assay: Toxicity in Swiss albino mouse xenografted with mouse EAC cells assessed as haemoglobin level at 5 mg/kg/day, ip administered for 9 days measured on day 14 (reference value: 5.54 +/- 0.734 g%); format: organism-based, Ehrlich; design: route intraperitoneal; settings: in vivo, 216 h
Mus musculus [5] = assay: Hepatoprotective activity in Swiss albino mouse xenografted with mouse EAC cells assessed as SGOT level at 10 mg/kg/day, ip administered for 9 days measured on day 14 (reference value: 112 +/- 1.42 IU/L); format: functional, Ehrlich; settings: route intraperitoneal
Mus musculus [6] = assay: Toxicity in Swiss albino mouse xenografted with mouse EAC cells assessed as body weight at 10 mg/kg/day, ip administered for 9 days measured on day 14 (reference value: 13.57 +/- 0.8 g); format: organism-based, Ehrlich; design: route intraperitoneal; settings: in vivo, 216 h
[7] = Antitumor activity against mouse EAC cells xenografted in Swiss albino mouse assessed as packed cell volume at 5 mg/kg/day, ip administered for 9 days measured on day 14 (reference value: 2.2 +/- 0.26 mL); format: functional, Ehrlich; settings: route intraperitoneal
[8] = Antitumor activity against mouse EAC cells xenografted in Swiss albino mouse assessed as tumor volume at 5 mg/kg/day, ip administered for 9 days measured on day 14 (reference value: 3.53 +/- 0.85 mL); format: functional, Ehrlich; settings: route intraperitoneal
Mus musculus [9] = assay: Toxicity in Swiss albino mouse xenografted with mouse EAC cells assessed as WBC level at 10 mg/kg/day, ip administered for 9 days measured on day 14 (reference value: 20.66 +/- 0.81 10^3/mm3); format: organism-based, Ehrlich; design: route intraperitoneal; settings: in vivo, 216 h
Mus musculus [10] = assay: Hepatoprotective activity in Swiss albino mouse xenografted with mouse EAC cells assessed as total protein level at 10 mg/kg/day, ip administered for 9 days measured on day 14 (reference value: 7.54 +/- 0.14 mg/dL); format: functional, Ehrlich; settings: route intraperitoneal
[11] = Antitumor activity against mouse EAC cells xenografted in Swiss albino mouse assessed as increase in life span at 5 mg/kg/day, ip administered for 9 days relative to vehicle-treated control; format: functional, Ehrlich; settings: route intraperitoneal
Mus musculus [12] = assay: Hepatoprotective activity in Swiss albino mouse xenografted with mouse EAC cells assessed as total protein level at 5 mg/kg/day, ip administered for 9 days measured on day 14 (reference value: 7.54 +/- 0.14 mg/dL); format: functional, Ehrlich; settings: route intraperitoneal
[13] = Antitumor activity against mouse EAC cells xenografted in Swiss albino mouse assessed as tumor volume at 10 mg/kg/day, ip administered for 9 days measured on day 14 (reference value: 3.53 +/- 0.85 mL); format: functional, Ehrlich; settings: route intraperitoneal
Mus musculus [14] = assay: Toxicity in Swiss albino mouse xenografted with mouse EAC cells assessed as RBC level at 10 mg/kg/day, ip administered for 9 days measured on day 14 (reference value: 2.36 +/- 0.13 million/mm3); format: organism-based, Ehrlich; design: route intraperitoneal; settings: in vivo, 216 h
Mus musculus [15] = assay: Hepatoprotective activity in Swiss albino mouse xenografted with mouse EAC cells assessed as SGPT level at 10 mg/kg/day, ip administered for 9 days measured on day 14 (reference value: 57.84 +/- 0.3 IU/L); format: functional, Ehrlich; settings: route intraperitoneal
[16] = Antitumor activity against mouse EAC cells xenografted in Swiss albino mouse assessed as packed cell volume at 10 mg/kg/day, ip administered for 9 days measured on day 14 (reference value: 2.2 +/- 0.26 mL); format: functional, Ehrlich; settings: route intraperitoneal
[17] = Antitumor activity against mouse EAC cells xenografted in Swiss albino mouse assessed as increase in life span at 10 mg/kg/day, ip administered for 9 days relative to vehicle-treated control; format: functional, Ehrlich; settings: route intraperitoneal
Ehrlich = assay: Anticancer activity against mouse EAC cells xenografted in Swiss albino mouse assessed as decrease in ascitic fluid volume relative to tumor control; format: functional
Mus musculus [18] = assay: Toxicity in Swiss albino mouse xenografted with mouse EAC cells assessed as WBC level at 5 mg/kg/day, ip administered for 9 days measured on day 14 (reference value: 20.66 +/- 0.81 10^3/mm3); format: organism-based, Ehrlich; design: route intraperitoneal; settings: in vivo, 216 h
Mus musculus [19] = assay: Toxicity in Swiss albino mouse xenografted with mouse EAC cells assessed as body weight at 5 mg/kg/day, ip administered for 9 days measured on day 14 (reference value: 13.57 +/- 0.8 g); format: organism-based, Ehrlich; design: route intraperitoneal; settings: in vivo, 216 h
[20] = Antitumor activity against mouse EAC cells xenografted in Swiss albino mouse assessed as non-viable tumor cells at 5 mg/kg/day, ip administered for 9 days measured on day 14 by trypan blue exclusion assay (reference value: 1.02 +/- 0.09 /ml); format: functional, Ehrlich; settings: route intraperitoneal
Mus musculus [21] = assay: Toxicity in Swiss albino mouse xenografted with mouse EAC cells assessed as RBC level at 5 mg/kg/day, ip administered for 9 days measured on day 14 (reference value: 2.36 +/- 0.13 million/mm3); format: organism-based, Ehrlich; design: route intraperitoneal; settings: in vivo, 216 h
[22] = Antitumor activity against mouse EAC cells xenografted in Swiss albino mouse assessed as viable tumor cells at 5 mg/kg/day, ip administered for 9 days measured on day 14 by trypan blue exclusion assay (reference value: 7 +/- 0.43 /ml); format: functional, Ehrlich; settings: route intraperitoneal
Mus musculus [23] = assay: Toxicity in Swiss albino mouse xenografted with mouse EAC cells assessed as haemoglobin level at 10 mg/kg/day, ip administered for 9 days measured on day 14 (reference value: 5.54 +/- 0.734 g%); format: organism-based, Ehrlich; design: route intraperitoneal; settings: in vivo, 216 h
Mus musculus [24] = assay: Hepatoprotective activity in Swiss albino mouse xenografted with mouse EAC cells assessed as SGPT level at 5 mg/kg/day, ip administered for 9 days measured on day 14 (reference value: 57.84 +/- 0.3 IU/L); format: functional, Ehrlich; settings: route intraperitoneal

With Cc1noc2cc3c(nc12)[nH]c1ccccc13 the IC50 (NCI-H460) was 49.2 µg/mL (≈ 221 µM), the IC50 (HeLa) was 54.5 µg/mL (≈ 244 µM) and the IC50 (MCF7) was 53.4 µg/mL (≈ 239 µM).

For Cc1noc2cc3c(nc12)[nH]c1ccc(Cl)cc13, the IC50 (NCI-H460) was 36.4 µg/mL (≈ 141 µM), the IC50 (HeLa) was 49.3 µg/mL (≈ 191 µM) and the IC50 (MCF7) was 49.1 µg/mL (≈ 190 µM).

For COc1ccc2[nH]c3nc4c(C)noc4cc3c2c1, the IC50 (NCI-H460) was 45.2 µg/mL (≈ 178 µM), the IC50 (HeLa) was 48.3 µg/mL (≈ 191 µM) and the IC50 (MCF7) was 46.5 µg/mL (≈ 184 µM).

Compound Cc1ccc2[nH]c3nc4c(C)noc4cc3c2c1 has an Activity [1] of 5.2 ×10⁷ /ml, an IC50 (NCI-H460) of 16.7 µg/mL (≈ 70.3 µM) and an Activity (Mus musculus [2]) of 106.1 IU/L. It also gave an Activity [3] of 2.07 ×10⁷ /ml, an Activity (Mus musculus [4]) of 6.26 g% and an Activity (Mus musculus [5]) of 98.6 IU/L. It also gave an Activity (Mus musculus [6]) of 8.36 g, an Activity [7] of 1.8 mL and an Activity [8] of 2.43 mL. It also gave an Activity (Mus musculus [9]) of 16.58 ×10³ /mm3, an Activity (Mus musculus [10]) of 6.63 mg/dL and an Activity [11] of 11.08%. For the same compound, the Activity (Mus musculus [12]) was 7.18 mg/dL, the Activity [13] was 1.63 mL and the Activity (Mus musculus [14]) was 3.66 million/mm3. For the same compound, the Activity (Mus musculus [15]) was 47.46 IU/L, the Activity [16] was 1.33 mL and the Activity [17] was 44.4%. For the same compound, the Activity (Ehrlich) was “Active”, the Activity (Mus musculus [18]) was 19.19 ×10³ /mm3 and the Activity (Mus musculus [19]) was 11.23 g. It also gave an Activity [20] of 1.62 ×10⁷ /ml, an IC50 (HeLa) of 19.7 µg/mL (≈ 83.1 µM) and an Activity (Mus musculus [21]) of 2.93 million/mm3. For the same compound, the Activity [22] was 6.43 ×10⁷ /ml, the IC50 (MCF7) was 18.8 µg/mL (≈ 79.3 µM) and the Activity (Mus musculus [23]) was 7.3 g%. The Activity (Mus musculus [24]) was 54 IU/L.

Cc1noc2cc3c(nc12)[nH]c1c(Cl)cccc13 gave an IC50 (NCI-H460) of 52.3 µg/mL (≈ 203 µM), an IC50 (HeLa) of 55.6 µg/mL (≈ 216 µM) and an IC50 (MCF7) of 54.5 µg/mL (≈ 212 µM).

For Cc1noc2cc3c(nc12)[nH]c1ccc(F)cc13, the IC50 (NCI-H460) was 52.4 µg/mL (≈ 217 µM), the IC50 (HeLa) was 50.5 µg/mL (≈ 209 µM) and the IC50 (MCF7) was 51.3 µg/mL (≈ 213 µM).

Compound Cc1noc2cc3c(nc12)[nH]c1ccc(Br)cc13 has an IC50 (NCI-H460) of 63.2 µg/mL (≈ 209 µM), an IC50 (HeLa) of 61.1 µg/mL (≈ 202 µM) and an IC50 (MCF7) of 60.4 µg/mL (≈ 200 µM).

In the case of Cc1noc2cc3c(nc12)[nH]c1c(C)cccc13, the Activity [1] is reported as 2.97 ×10⁷ /ml, the IC50 (NCI-H460) is reported as 20.4 µg/mL (≈ 86.2 µM) and the Activity (Mus musculus [2]) is reported as 106.3 IU/L. It also gave an Activity [3] of 4.2 ×10⁷ /ml, an Activity (Mus musculus [4]) of 7.09 g% and an Activity (Mus musculus [5]) of 101.06 IU/L. The Activity (Mus musculus [6]) was 5.93 g, the Activity [7] was 1.36 mL and the Activity [8] was 2.13 mL. For the same compound, the Activity (Mus musculus [9]) was 15.25 ×10³ /mm3, the Activity (Mus musculus [10]) was 4.77 mg/dL and the Activity [11] was 36.36%. For the same compound, the Activity (Mus musculus [12]) was 6.43 mg/dL, the Activity [13] was 1.4 mL and the Activity (Mus musculus [14]) was 4.14 million/mm3. The Activity (Mus musculus [15]) was 41.06 IU/L, the Activity [16] was 0.86 mL and the Activity [17] was 75%. For the same compound, the Activity (Ehrlich) was “Active”, the Activity (Mus musculus [18]) was 17.65 ×10³ /mm3 and the Activity (Mus musculus [19]) was 9.76 g. It also gave an Activity [20] of 2.31 ×10⁷ /ml, an IC50 (HeLa) of 23.6 µg/mL (≈ 99.6 µM) and an Activity (Mus musculus [21]) of 3.34 million/mm3. The Activity [22] was 4.74 ×10⁷ /ml, the IC50 (MCF7) was 22.5 µg/mL (≈ 94.9 µM) and the Activity (Mus musculus [23]) was 8.88 g%. It also gave an Activity (Mus musculus [24]) of 55.1 IU/L.

Reference: ChEMBL document CHEMBL2157994, “Synthesis and in vitro and in vivo anticancer activity of novel 3-methyl-5H-isoxazolo[5',4':5,6]pyrido[2,3-b]indoles” (Bioorg Med Chem Lett, 2012)
